Data on 13 compounds can be found in patent US20260146991A1, “COMPOSITION AND METHODS OF AGING-RELATED AGENT SCREENING AND TARGET ANALYSIS” (Centre for Translational Stem Cell Biology Limited, priority 2022, published 2026).

The subject of data set [1] is TSC-STB differentiation. The experiment in a line: TSC-STB system, overall evaluation of anti-aging effect. Format: cell-based, human. The note with it: summary statement. The method, then:
(§1) Same number of TSCs in robust growing state were seeded in STBM with/without a candidate agent in a black Polystyrene TC-treated 96-well Microplate pre-coated with 10 mg/ml Geltrex™ LDEV-Free Reduced Growth Factor Basement Membrane Matrix or Matrigel (1.5×10^4-2×10^4 cells per well). On each screening microplate, 3 wells of control (cells only with 0.5% DMSO in 100 μL STB growth medium) and 3 wells of positive control (some well-known anti-ageing agents in certain concentration) were included. The cells were cultured at 37° C. and 5% CO2 with saturating humidity and differentiated into mature STB in the medium for 6 days. Cell morphology was monitored daily under a microscope. The signal readouts of reporter molecules was assessed on day 2, day 4, and day 6. On day 6, cells in each well were fixed and stained with DAPI or Hoechst, and cell count and intensity (both reporter and nuclei) were assessed using high content microscopy to assess the agent's effects and cell viability. The agents, especially those that affect cell viability will also be tested at different concentrations and at different day during the STB differentiation process.
(§2) First, a known anti-aging drug Rapamycin was tested. TSCs in good growing state were seeded at 1.0×10^4-2×10^4 cells per well in a 24-well plate pre-coated with 10 mg/mL Geltrex™ LDEV-Free Reduced Growth Factor Basement Membrane Matrix or Matrigel. After 24 hours, 3 wells continued in TSCM; 3 wells switched to STBM+DMSO; 3 wells switched to STBM+Rapamycin (500 nM). The media was changed every 2-3 days. On day 6, β-hCG was measured by ELISA as described in Example 1. Expression of aging-related marker genes (e.g., CGA and CGB3) was measured by RT-qPCR as described in Example 1.

In data set [2] the test system is TSCs differentiating towards STBs. The data set can be described thus: RT-qPCR of aging-related marker genes during TSC-STB differentiation. In kind it is cell-based, human. The note with it: FIG. 4H. The protocol:
(§3) To generate the hTSC cell lines, the single cell suspension of hEPSCs were plated on a 6-well plate (1-2×10^3/well) pre-coated with 10 mg/mL Geltrex™ LDEV-Free Reduced Growth Factor Basement Membrane Matrix or Matrigel and cultured in human trophoblast stem cell medium (hTSCM) for 7-10 days. Then single colonies of the differentiated cells on the 6-well plate were picked and expanded. The expanded cell lines were validated with trophoblast markers and RNA-Seq analysis. The established TSC cell lines were maintained in the hTSCM medium and passaged at ratio 1:4-1:5 every 3-5 days. The hTSCM was DMEM/F12 based medium supported with: 110 μM β-mercaptoethanol, 0.2% FBS, 0.5% Penicillin-Streptomycin-Glutamine, 0.3% BSA, 1×ITS-X supplement, 50.0 μg/mL Vc, 50.0 ng/ml EGF, 2.0 μM CHIR99021, 0.5 μM A83-01, 1.0 μM SB431542, 0.8 μM VPA, and 5.0 μM Y27632. Established TSC cells were seeded at 1.0×10^5-2×10^5 cells per well in a six-well plate pre-coated with 10 mg/mL Geltrex™ LDEV-Free Reduced Growth Factor Basement Membrane Matrix or Matrigel, and were induced to differentiate into STBs after culturing in syncytiotrophoblasts medium (STBM) for around 6 days. The STBM comprises: DMEM/F12 supplemented with 110 μM β-mercaptoethanol, 0.5% Penicillin-Streptomycin, 0.3% BSA, 1×ITS-X, 2.5 μM Y27632, 2 μM Forskolin, and 4% KnockOut Serum Replacement. The cells became early syncytiotrophoblasts on day 2-3, and mature syncytiotrophoblasts around day 6.
RT-qPCR: Total RNA was extracted using RNeasy Mini Kit (Qiagen) per manufacturer specification. Extracted RNA was then reverse transcribed to cDNA using Fastking gDNA diselling RT SuperMix (Tiangen). Gene expression was measured using PowerUp™ SYBR™ Green Master Mix (Applied Biosystems) and StepOnePlus™ Real-Time PCR (Applied Biosystems) with the primers listed in Table E1A. Raw gene expression data was normalized to GAPDH by using the ΔCt method. Statistical analysis was carried out using either one/two-tailed student's t-test in Prism 8 (GraphPad).
as §2

The test system is the same in data set [3]. The experiment in a line: Western blot of β-hCG during TSC-STB differentiation. Particulars: at certain / different concentrations, FIG. 4I. In kind it is cell-based, human. The method, then:
Western blot: The proteins were extracted with RIPA lysis (thermofisher, Cat. 89901) and Pierce Protease Inhibitor Mini Tablets (thermofisher, Cat. A32953). Protein concentrations were measured with Pierce™ BCA Protein Assay Kits (thermofisher, Cat. 23227). Then samples with certain amount of NuPAGE™ LDS Sample Buffer (4×) (thermofisher, Cat. NP0008) were boiled at 70 degree for 10 min. Boiled samples were loaded with the same amount and separated in 12% polyacrylamide gels (Thermofisher Cat. NP0343BOX) and transferred to PVDF membranes using the Bio-Rad transblot turbo system according to the manufacturer's guidance. Images were developed by the ChemiDoc Imaging System and processed with ImageJ 1.47v. The following primary antibodies were used: anti-GAPDH (thermosfisher, Cat. AM4300, 1:10000 for western blot), anti-Ki67 (thermofisher, Cat. MA5-14520, 1:1000 for western blot, 1:200 for IF), anti-HERVK-gag (Austral Biologicals, Cat. HERM-1811-5, 1:200 for IF), anti-TRF1 (Abcam, Cat. ab 10579, 1:100 for IF), anti-ZO-1 (CST, Cat. 13663, 1:200 for IF), anti-CGB3 (Abcam, Cat. Ab131170, 1:200 for IF), anti-H3 (CST, Cat. 4499 1:2000 for western blot), anti-H3K9mc3 (Abcam, Cat. ab8898, 1:1000 for western blot), anti-E-cadherin (CST, Cat. 14472, 1:200 for IF), anti-p38 MAPK (thermofisher, Cat. 338700, 1:1000 for western blot), anti-LaminB1 (thermofisher, Cat. 702972, 1:1000 for western blot, 1:200 for IF), anti-p27 Kip1 (thermofisher, Cat. PA527188, 1:1000 for western blot), anti-Hp1 gamma (thermofisher, Cat. MA3054, 1:1000 for western blot, 1:300 for IF), anti-SIRT1 (CST, Cat. 8469S, 1:1000 for western blot), anti-SIRT6 (CST, Cat. 12486S, 1:1000 for western blot), anti-SIRT3 (thermofisher, Cat. MA514910, 1:1000 for western blot), anti-p53 (thermofisher, Cat. MA512557, 1:1000 for western blot, 1:200 for IF), anti-gammaH2AX (CST, Cat. 2577s, 1:1000 for western blot, 1:200 for IF), anti-IL-6 (thermofisher, Cat. MA523698, 1:50 for IF), anti-hCG (thermofisher, Cat. 14-6508-82, 1:1000 for western blot, 1:200 for IF). […]

Data set [4] shares this test system. The data set can be described thus: Cell morphology, viability and proliferation during TSC-STB differentiation. Particulars: for morphology: appearance of multinucleated STB cells: treated cells during TSC-STB differentiation, FIG. 4E. Format: cell-based, human. The protocol:
as §3, §1, §2

Data set [5] shares this test system. The experiment in a line: ELISA of secreted β-hCG during TSC-STB differentiation. In kind it is cell-based, human. The note with it: compared to the DMSO control group; FIG. 4F. The method, then:
as §3, with “The STBM comprises: DMEM/F12 supplemented with 110 μM β-mercaptoethanol, 0.5% Penicillin-Streptomycin, 0.3% BSA, 1×ITS-X, 2.5 μM Y27632, 2 μM Forskolin, and 4% KnockOut Serum Replacement. The cells became early syncytiotrophoblasts on day 2-3, and mature syncytiotrophoblasts around day 6.” left out
First, a known anti-aging drug Rapamycin was tested. […] On day 6, β-hCG was measured by ELISA as described in Example 1. Expression of aging-related marker genes (e.g., CGA and CGB3) was measured by RT-qPCR as described in Example 1.

The conditions of data set [6]: background; cited from earlier work.
For data set [7], the system named is model organisms. The note with it: yeast, worms, flies, male mice; background; cited from earlier work.

“Also recorded” adds a separate entry of the source.

Take `O=c1c(O)c(-c2ccc(O)c(O)c2)oc2cc(O)ccc12` [Fisetin]: the “anti-aging effect in the TSC-STB system” value in data set [1] is “showed anti-aging effects as expected”. Besides, the CGA expression entry is recorded as “reduced” in data set [2] (1 μM) and “increasing” in data set [2] (10 μM). Also, the “β-hCG expression (Western blot)” value was “reduced” in data set [3] and “significantly reduce” in data set [3] (listed as Fisctin).

Take `CC(C)C[C@H](NC(=O)OCc1ccccc1)C(=O)N[C@@H](C[C@@H]1CCNC1=O)C(O)S(=O)(=O)[O-].[Na+]` (some centres unmarked) [GC376]: in data set [4], the “morphology: appearance of multinucleated STB cells” value (“morphology: appearance” below) is “delayed appearance of multinucleated STB cells”.

Regarding `CC(C)n1nc(-c2ccc3oc(N)nc3c2)c2c(N)ncnc21` [INK128], the “secreted β-hCG level (ELISA)” value in data set [5] is given as “significantly lower”. Further, the “morphology: appearance” value in data set [4] is “delayed appearance of multinucleated STB cells”. The “β-hCG expression (Western blot)” value in data set [3] is “significantly reduce; also recorded: reduced”.

For the compound `CC(C)C(=O)OC[C@H]1O[C@@H](n2ccc(NO)nc2=O)[C@H](O)[C@@H]1O` [Molnupiravir], in data set [4], the “morphology: appearance” value was “delayed appearance of multinucleated STB cells”.

Turning to `NC(=O)c1ccc[n+]([C@@H]2O[C@H](COP(=O)([O-])O)[C@@H](O)[C@H]2O)c1` [NMN, Nicotinamide mononucleotide], in data set [1], the “anti-aging effect in the TSC-STB system” value is listed as “showed anti-aging effects as expected”. The CGA expression entry in data set [2] (1 μM) is “reduced”; in data set [2] (10 μM) it was “increasing”.

With `O=c1c(O)c(-c2ccc(O)c(O)c2)oc2cc(O)cc(O)c12` [Quercetin], the “anti-aging effect in the TSC-STB system” value in data set [1] was “showed anti-aging effects as expected”. Besides, the CGA expression entry in data set [2] (1 μM) and in data set [2] (10 μM) was “decrease” in each case.

In the case of `CO[C@H]1C[C@@H]2CC[C@@H](C)[C@@](O)(O2)C(=O)C(=O)N2CCCC[C@H]2C(=O)O[C@H]([C@H](C)C[C@@H]2CC[C@@H](O)[C@H](OC)C2)CC(=O)[C@H](C)/C=C(\C)[C@@H](O)[C@@H](OC)C(=O)[C@H](C)C[C@H](C)/C=C/C=C/C=C/1C` [Rapamycin], the “cell viability or proliferation” value in data set [4] (500 nM, FIG. 4A) was “did not affect”.

Consider `NCCCCNCCCN` [Spermdine], for which the CGA expression result in data set [2] (1 μM) and in data set [2] (10 μM) was “decrease” in each case.

Take `CC(=O)Oc1ccccc1C(=O)O` [aspirin]: the “side effects in humans” value in data set [6] was “increase the risk of gastrointestinal bleeding”. Also, the “lifespan in some model organisms” value in data set [7] was “extend lifespan”.

Regarding `Cc1ccc(-c2cc(C(F)(F)F)nn2-c2ccc(S(N)(=O)=O)cc2)cc1` [celecoxib], the “side effects in humans” value in data set [6] is “major bleeding events and increase in all-cause mortality”.

As for `CC(C)Cc1ccc(C(C)C(=O)O)cc1` (centres unmarked) [ibuprofen], the “side effects in humans” value in data set [6] is “major bleeding events and increase in all-cause mortality”. For the same compound, the “lifespan in some model organisms” value in data set [7] was “extend lifespan”.

Turning to `CN(C)C(=N)N=C(N)N` [metformin], the “anti-aging effect in the TSC-STB system” value in data set [1] is reported as “showed anti-aging effects as expected”.

On to STM2457, for which the “morphology: appearance” value in data set [4] is listed as “delayed appearance of multinucleated STB cells”.
